From US20250042911A1, “NOVEL BENZOPYRAN DERIVATIVE AND USE THEREOF” (SPARK BIOPHARMA, INC, priority 2021, published 2025) come the findings set out here.

What is called inhibition is the relative decrease from the control value, in per cent. A high value points to a strong effect. Usually EC50 stands for the midpoint of the concentration-response curve. A high value points to weaker potency.

This test concerns human M2 macrophages. The test can be described thus: Inhibition of human M2 macrophage activity, hCCL22 in culture supernatant by ELISA. Format: cell-based. The following applies: for inhibition at 10 µM / inhibition at 5 µM: Macrophage, 72 hours; for inhibition at 10 µM: hCCL22 inhibitory activity at 10 μM; for EC50: hCCL22 secretion, THP-1 derived M2-like macrophages, compound present during 72 hours of differentiation; for inhibition at 5 µM: hML22 inhibitory activity at 5 μM. Here is the method:
To obtain human M2 macrophages, human monocytes (THP-1 monocyte, CD4 expression) were stabilized in a 96-well plate for 24 hours and then incubated in culture media containing 100 ng/mL phorbal 12-myristate-13-acetate (PMA; Sigma, P8139) for 24 hours to differentiate into M0 macrophages (macrophage-like phenotype). It was confirmed that differentiated M0 macrophages had reduced CD4 expression and expressed CD11b. M0 macrophages in the plate well were washed once with culture media and incubated in culture media containing 25 ng/mL hIL-4 (Peprotech, 200-04-50) and 25 ng/mL hIL-13 (Peprotech, 200-13-50) for 72 hours to differentiate into M2-like macrophages. Test compounds were diluted by concentration in M2 differentiation media and treated simultaneously during a differentiation period of 72 hours. The inhibitory effect of the test compounds on M2 macrophages was determined by measuring hCCL22 in the medium culture supernatant cultured for 72 hours using an ELISA assay (R&D system, DMD00). The results of the activity measurements are represented in Table 3 (EC50), Table 4 ([…] inhibitory activity at 5 μM) and Table 5 (hCCL22 inhibitory activity at 10 μM).
In general terms: An ELISA detects its analyte on a solid surface through an enzyme-linked reagent.

In turn, `O=c1n(-c2ccccc2)c(=O)n2n1CC=C1C2c2ccc(O)cc2OC1(CF)CF` (stereo not drawn) [Example 1, 7,7-bis(fluoromethyl)-10-hydroxy-2-phenyl-5,12b-dihydro-1H,7H-chromeno[4,3-c][1,2,4]triazolo[1,2-a]pyridazine-1,3(2H)-dione] had an inhibition at 10 µM of 80.4%.
The compound `CC(=O)c1ccc(-n2c(=O)n3n(c2=O)C2C(=CC3)C(CF)(CF)Oc3cc(O)ccc32)cc1` (stereo not drawn) [Example 2, 2-(4-acetylphenyl)-7,7-bis(fluoromethyl)-10-hydroxy-5,12b-dihydro-1H,7H-chromeno[4,3-c][1,2,4]triazolo[1,2-a]pyridazine-1,3(2H)-dione] displayed an inhibition at 10 µM of 64.4%.
The same measure, in the same setting: the same measure for `CC(=O)Nc1ccc2c(c1)OC(C)(C)C1=CCn3c(=O)n(-c4ccc(C(C)=O)cc4)c(=O)n3C12` (stereo not drawn) [Example 3, N-(2-(4-acetylphenyl)-7,7-dimethyl-1,3-dioxo-2,3,5,12b-tetrahydroxy-1H,7H-chromeno[4,3-c][1,2,4]triazolo[1,2-a]pyridazin-10-yl)acetamide]: 16.9%; for `CC(=O)c1ccc(-n2c(=O)n3n(c2=O)C2C(=CC3)C(C)(C)Oc3cc(S(C)(=O)=O)ccc32)cc1` (stereo not drawn) [Example 4, 2-(4-acetylphenyl)-7,7-dimethyl-10-(methylsulfonyl)-5,12b-dihydro-1H,7H-chromeno[4,3-c][1,2,4]triazolo[1,2-a]pyridazine-1,3(2H)-dione]: 51.9%.
On the same count and under the same terms, under `CC(=O)c1ccc(-n2c(=O)n3n(c2=O)C2C(=CC3)C(C)(C)Oc3cc(NS(C)(=O)=O)ccc32)cc1` (stereo not drawn) [Example 5, N-(2-(4-acetylphenyl)-7,7-dimethyl-1,3-dioxo-2,3,5,12b-tetrahydro-1H,7H-chromeno[4,3-c][1,2,4]triazolo[1,2-a]pyridazin-10-yl)methanesulfonamide] stands 42.3%.
`CC(=O)c1ccc(-n2c(=O)n3n(c2=O)C2C(=CC3)C(C)(C)Oc3cc(N)ccc32)cc1` (stereo not drawn) [Example 7, 2-(4-acetylphenyl)-10-amino-7,7-dimethyl-5,12b-dihydro-1H,7H-chromeno[4,3-c][1,2,4]triazolo[1,2-a]pyridazine-1,3(2H)-dione] displayed an inhibition at 10 µM of 83.4% and a 50% effective concentration (EC50) of 4.5 µM.
`CC(=O)c1ccc(-n2c(=O)n3n(c2=O)C2C(=CC3)C(C)(C)Oc3cc(N4CCOCC4)ccc32)cc1` (stereo not drawn) [Example 8, 2-(4-acetylphenyl)-7,7-dimethyl-10-morpholino-5,12b-dihydro-1H,7H-chromeno[4,3-c][1,2,4]triazolo[1,2-a]pyridazine-1,3(2H)-dione]: testing at 10 µM gave an inhibition of 60.7%.
On the same count and under the same terms, the same measure for `CC(=O)c1ccc(-n2c(=O)n3n(c2=O)C2C(=CC3)C(C)(C)Oc3cc(NS(N)(=O)=O)ccc32)cc1` (stereo not drawn) [Example 9, N-(2-(4-acetylphenyl)-7,7-dimethyl-1,3-dioxo-2,3,5,12b-tetrahydro-1H,7H-chromeno[4,3-c][1,2,4]triazolo[1,2-a]pyridazin-10-yl)sulfuric diamide]: 74.8%; for `CC(=O)c1ccc(-n2c(=O)n3n(c2=O)C2C(=CC3)C(C)(C)Oc3c2cc(Br)c(O)c3Br)cc1` (stereo not drawn) [Example 10, 2-(4-acetylphenyl)-9,11-dibromo-10-hydroxy-7,7-dimethyl-5,12b-dihydro-1H,7H-chromeno[4,3-c][1,2,4]triazolo[1,2-a]pyridazine-1,3(2H)-dione]: 98.4%; for `CC(=O)c1ccc(-n2c(=O)n3n(c2=O)C2C(=CC3)C(C)(C)Oc3c2cc(Cl)c(O)c3Cl)cc1` (stereo not drawn) [Example 11, 2-(4-acetylphenyl)-9,11-dichloro-10-hydroxy-7,7-dimethyl-5,12b-dihydro-1H,7H-chromeno[4,3-c][1,2,4]triazolo[1,2-a]pyridazine-1,3(2H)-dione]: 78.1%.
The same measure, in the same setting: the same measure for `CC1(C)Oc2cc(O)ccc2C2C1=CCn1c(=O)n(-c3cccc(F)n3)c(=O)n12` (stereo not drawn) [Example 12, 2-(6-fluoropyridin-2-yl)-10-hydroxy-7,7-dimethyl-5,12b-dihydro-1H,7H-chromeno[4,3-c][1,2,4]triazolo[1,2-a]pyridazine-1,3(2H)-dione]: 16.8%.
`CCNc1ccc2c(c1)OC(C)(C)C1=CCn3c(=O)n(-c4ccc(C(C)=O)cc4)c(=O)n3C12` (stereo not drawn) [Example 16, 2-(4-acetylphenyl)-10-(ethylamino)-7,7-dimethyl-5,12b-dihydro-1H,7H-chromeno[4,3-c][1,2,4]triazolo[1,2-a]pyridazine-1,3(2H)-dione] showed an inhibition at 10 µM of 79.9% and an EC50 of 4 µM.
The compound `CC(=O)c1ccc(-n2c(=O)n3n(c2=O)C2C(=CC3)C(C)(C)Oc3cc(NCC(F)(F)F)ccc32)cc1` (stereo not drawn) [Example 17, 2-(4-acetylphenyl)-7,7-dimethyl-10-((2,2,2-trifluoroethyl)amino)-5,12b-dihydro-1H,7H-chromeno[4,3-c][1,2,4]triazolo[1,2-a]pyridazine-1,3(2H)-dione] came in with an EC50 of 8.2 µM.
For `CC(=O)c1ccc(-n2c(=O)n3n(c2=O)C2C(=CC3)C(C)(C)Oc3cc(N4CCN(C(C)=O)CC4)ccc32)cc1` (stereo not drawn) [Example 19, 2-(4-acetylphenyl)-10-(4-acetylpiperazin-1-yl)-7,7-dimethyl-5,12b-dihydro-1H,7H-chromeno[4,3-c][1,2,4]triazolo[1,2-a]pyridazine-1,3(2H)-dione], testing at 10 µM gave an inhibition of 18.8%.
The compound `CC(=O)c1ccc(-n2c(=O)n3n(c2=O)C2C(=CC3)C(C)(C)Oc3cc(O)c(OC(F)(F)F)cc32)cc1` (stereo not drawn) [Example 25, 2-(4-acetylphenyl)-10-hydroxy-7,7-dimethyl-11-(trifluoromethoxy)-5,12b-dihydro-1H,7H-chromeno[4,3-c][1,2,4]triazolo[1,2-a]pyridazine-1,3(2H)-dione] returned an inhibition at 5 µM of 42%.
Still for that read-out and setting: the same measure for `CC(=O)c1ccc(-n2c(=O)n3n(c2=O)C2C(=CC3)C(C)(C)Oc3c2cc(F)c(O)c3F)cc1` (stereo not drawn) [Example 27, 2-(4-acetylphenyl)-9,11-difluoro-10-hydroxy-7,7-dimethyl-5,12b-dihydro-1H,7H-chromeno[4,3-c][1,2,4]triazolo[1,2-a]pyridazine-1,3(2H)-dione]: 29.9%.
Still for that read-out and setting: under `CC(=O)c1ccc(-n2c(=O)n3n(c2=O)C2C(=CC3)C(C)(C)Oc3c2cc(Br)c(N)c3Br)cc1` (stereo not drawn) [Example 28, 2-(4-acetylphenyl)-10-amino-9,11-dibromo-7,7-dimethyl-5,12b-dihydro-1H,7H-chromeno[4,3-c][1,2,4]triazolo[1,2-a]pyridazine-1,3(2H)-dione] stands 71.2%.
Compound `CC(=O)c1ccc(-n2c(=O)n3n(c2=O)C2C(=CC3)C(C)(C)Oc3cc(NC(C)C)ccc32)cc1` (stereo not drawn) [Example 29, 2-(4-acetylphenyl)-10-(isopropylamino)-7,7-dimethyl-5,12b-dihydro-1H,7H-chromeno[4,3-c][1,2,4]triazolo[1,2-a]pyridazine-1,3(2H)-dione] showed an inhibition at 10 µM of 95.2% and an EC50 of 3.3 µM.
`CC(=O)c1ccc(-n2c(=O)n3n(c2=O)C2C(=CC3)C(C)(C)Oc3cc(NC(C)(C)C)ccc32)cc1` (stereo not drawn) [Example 30, 2-(4-acetylphenyl)-10-(tert-butylamino)-7,7-dimethyl-5,12b-dihydro-1H,7H-chromeno[4,3-c][1,2,4]triazolo[1,2-a]pyridazine-1,3(2H)-dione]: the inhibition at 10 µM stood at 97.3% and the response was half-maximal at 4.3 µM (EC50).
`CC(=O)c1ccc(-n2c(=O)n3n(c2=O)C2C(=CC3)C(C)(C)Oc3c2cc(Cl)c(N)c3Cl)cc1` (stereo not drawn) [Example 31, 2-(4-acetylphenyl)-10-amino-9,11-dichloro-7,7-dimethyl-5,12b-dihydro-1H,7H-chromeno[4,3-c][1,2,4]triazolo[1,2-a]pyridazine-1,3(2H)-dione] gave an inhibition at 10 µM of 97.2% and an EC50 of 2 µM.
As to `CNc1ccc2c(c1)OC(C)(C)C1=CCn3c(=O)n(-c4ccc(C(C)=O)cc4)c(=O)n3C12` (stereo not drawn) [Example 32, 2-(4-acetylphenyl)-7,7-dimethyl-10-(methylamino)-5,12b-dihydro-1H,7H-chromeno[4,3-c][1,2,4]triazolo[1,2-a]pyridazine-1,3(2H)-dione], the inhibition at 10 µM was 84.4% and the EC50 was determined as 6.1 µM.
The matching figures for `CCN(CC)c1ccc2c(c1)OC(C)(C)C1=CCn3c(=O)n(-c4ccc(C(C)=O)cc4)c(=O)n3C12` (stereo not drawn) [Example 33, 2-(4-acetylphenyl)-10-(diethylamino)-7,7-dimethyl-5,12b-dihydro-1H,7H-chromeno[4,3-c][1,2,4]triazolo[1,2-a]pyridazine-1,3(2H)-dione]: 96.5% and 5.8 µM.
The corresponding values for `CC(=O)c1ccc(-n2c(=O)n3n(c2=O)C2C(=CC3)C(C)(C)Oc3cc(N4CCCC4)ccc32)cc1` (stereo not drawn) [Example 34, 2-(4-acetylphenyl)-7,7-dimethyl-10-(pyrrolidin-1-yl)-5,12b-dihydro-1H,7H-chromeno[4,3-c][1,2,4]triazolo[1,2-a]pyridazine-1,3(2H)-dione] are 73.7% and 7.7 µM.
The matching figures for `CC1(C)Oc2cc(NC3COC3)ccc2C2C1=CCn1c(=O)n(-c3ccc(F)cc3)c(=O)n12` (stereo not drawn) [Example 35, 2-(4-fluorophenyl)-7,7-dimethyl-10-(oxetan-3-ylamino)-5,12b-dihydro-1H,7H-chromeno[4,3-c][1,2,4]triazolo[1,2-a]pyridazine-1,3(2H)-dione]: 96.7% and 4.8 µM.
